Reference: patent US4436751A, “Nitrobenzyl monates antibacterial compounds” (Beecham Group Limited, priority 1980, dated 1984)
Values after ≈ are worked out from the molar mass of the structure shown. Where two headings read alike, the source gives them in different places.

How the values were obtained:
Assay type in all cases: cell-based
Strep. 2733-B = experiment: Human bacteria MIC, nutrient agar with chocolated horse blood (Table 3)
Experimental: (§1) The values were determined by serial dilutions in nutrient agar with 5% chocolated horse blood after incubations for 18 hours at 37° C.

[1] = test system: Neisseria catarrhalis 1502; experiment: as above; conditions: Neisseria catarrhalis 1502; nutrient agar 5% chocolated horse blood, 18 hours 37° C.; read-out: MIC
Experimental: as §1

E. coli ESS = experiment: as above; conditions: Escherichia coli; E. coli ESS; nutrient agar 5% chocolated horse blood, 18 hours 37° C.; read-out: MIC
Experimental: as §1

M. gallisepticum S6 = experiment: Anti-mycoplasmal MIC in vitro, Friis broth agarose (Table 1); conditions: Mycoplasmoides gallisepticum
[2] = test system: M. suipneumoniae J2206/183b; experiment: as above; conditions: Mesomycoplasma hyopneumoniae, 144 h
M. hyorhinis ATCC 25021 = experiment: as above; conditions: Mesomycoplasma hyorhinis, ATCC25021, 144 h
[3] = test system: M. suipneumoniae NCTC 10110; experiment: as above; conditions: Mesomycoplasma hyopneumoniae, NCTC10110, 144 h
M. suipneumoniae Str. 11 = experiment: as above; conditions: Mesomycoplasma hyopneumoniae
[4] = test system: M. suipneumoniae ATCC 25095; experiment: as above; conditions: Mesomycoplasma hyopneumoniae, ATCC25095, 144 h
M. suipneumoniae LABER = experiment: as above; conditions: Mesomycoplasma hyopneumoniae, 144 h
M. suipneumoniae TAM 6N = experiment: as above; conditions: Mesomycoplasma hyopneumoniae, TAM6N, 144 h
M. suipneumoniae MS 16 = experiment: as above; conditions: Mesomycoplasma hyopneumoniae, MS16, 144 h
M. bovis RCTC 10131 = experiment: microbe, parasite or virus in culture; conditions: RCTC10131, 144 h
[5] = test system: M. suipneumoniae PW/C/210; experiment: Anti-mycoplasmal MIC in vitro, Friis broth agarose (Table 1); conditions: Mesomycoplasma hyopneumoniae, 144 h
M. suipneumoniae HR(2) = experiment: as above; conditions: Mesomycoplasma hyopneumoniae, 144 h
Staph. aureus Oxford = experiment: Veterinary bacteria MIC, Diagnostic Sensitivity Test Agar (Table 2); conditions: Staphylococcus aureus; Staph. aureus Oxford; DST Agar, 10^4 organisms, 18 hours 37° C.; read-out: MIC
Experimental: (§2) The values were determined using a two fold serial dilutions in Diagnostic Sensitivity Test Agar with an inoculum of 10^4 organisms and incubation for 18 hours at 37° C.

[6] = test system: Strep. suis (group D) SPS11; experiment: as above; conditions: Streptococcus suis; Strep. suis (group D) SPS11; DST Agar, 10^4 organisms, 18 hours 37° C.; read-out: MIC
Experimental: as §2

[7] = test system: Erysipelothrix rhusiopathiae NCTC 8163; experiment: as above; conditions: NCTC8163; Erysipelothrix rhusiopathiae NCTC 8163; DST Agar, 10^4 organisms, 18 hours 37° C.; read-out: MIC
Experimental: as §2

Past. multocida PA2 = experiment: as above; conditions: Pasteurella multocida; Past. multocida PA2; DST Agar, 10^4 organisms, 18 hours 37° C.; read-out: MIC
Experimental: as §2

Strep. dylgalactiae SPD1 = experiment: as above; conditions: Strep. dylgalactiae SPD1; DST Agar, 10^4 organisms, 18 hours 37° C.; read-out: MIC
Experimental: as §2

S. typhimurium S18 = experiment: as above; conditions: Salmonella enterica
Experimental: as §2

Strep. agalactiae SPA1 = experiment: as above; conditions: Streptococcus agalactiae; Strep. agalactiae SPA1; DST Agar, 10^4 organisms, 18 hours 37° C.; read-out: MIC
Experimental: as §2

S. dublin S7 = experiment: as above; conditions: Salmonella enterica
Experimental: as §2

Staph. aureus B4 = experiment: as above; conditions: Staphylococcus aureus; Staph. aureus B4; DST Agar, 10^4 organisms, 18 hours 37° C.; read-out: MIC
Experimental: as §2

E. Coli E1 = experiment: as above; conditions: Escherichia coli
Experimental: as §2

Staph. aureus 152 = experiment: as above; conditions: Staphylococcus aureus; Staph. aureus 152; DST Agar, 10^4 organisms, 18 hours 37° C.; read-out: MIC
Experimental: as §2

[8] = test system: Corynebacterium pyogenes CY1; experiment: as above; conditions: Trueperella pyogenes
Experimental: as §2

Strep. 641848-C = experiment: Human bacteria MIC, nutrient agar with chocolated horse blood (Table 3); conditions: 18 h
Experimental: as §1

[9] = S. typhimurium S18, DST Agar, 10^4 organisms, 18 hours 37° C., read-out: MIC
[10] = S. dublin S7, DST Agar, 10^4 organisms, 18 hours 37° C., read-out: MIC
[11] = E. Coli E1, DST Agar, 10^4 organisms, 18 hours 37° C., read-out: MIC
[12] = Corynebacterium pyogenes CY1, DST Agar, 10^4 organisms, 18 hours 37° C., read-out: MIC

Structure (SMILES): C/C(=C\C(=O)OCc1cccc([N+](=O)[O-])c1)CC1OCC(CC2OC2C(C)C(C)O)C(O)C1O (stereo not drawn) [Example 2, m-nitrobenzyl monate A]
- MIC (Strep. 2733-B; Strep. 2733-B, nutrient agar 5% chocolated horse blood, 18 hours 37° C., read-out: MIC): 10 µg/mL (≈ 20.9 µM)
- MIC [1]: 2.5 µg/mL (≈ 5.21 µM)
- MIC (E. coli ESS): 5 µg/mL (≈ 10.4 µM)
- MIC (M. gallisepticum S6; 144 h, M. gallisepticum S6, in vitro, 6 days 37° C., read-out: MIC): 2.5 µg/mL (≈ 5.21 µM)
- MIC ([2]; M. suipneumoniae J2206/183b, in vitro, 6 days 37° C., read-out: MIC): 0.025 µg/mL (≈ 0.0521 µM)
- MIC (M. hyorhinis ATCC 25021; M. hyorhinis ATCC 25021, in vitro, 6 days 37° C., read-out: MIC): ≤ 0.01 µg/mL
- MIC [3]: 0.025 µg/mL (≈ 0.0521 µM)
- MIC (M. suipneumoniae Str. 11; 144 h, M. suipneumoniae Str. 11, in vitro, 6 days 37° C., read-out: MIC): 0.025 µg/mL (≈ 0.0521 µM)
- MIC [4]: 0.025 µg/mL (≈ 0.0521 µM)
- MIC (M. suipneumoniae LABER; M. suipneumoniae LABER, in vitro, 6 days 37° C., read-out: MIC): 0.025 µg/mL (≈ 0.0521 µM)
- MIC (M. suipneumoniae TAM 6N; M. suipneumoniae TAM 6N, in vitro, 6 days 37° C., read-out: MIC): 0.025 µg/mL (≈ 0.0521 µM)
- MIC (M. suipneumoniae MS 16; M. suipneumoniae MS 16, in vitro, 6 days 37° C., read-out: MIC): ≤ 0.01 µg/mL
- MIC (M. bovis RCTC 10131): ≤ 0.01 µg/mL
- MIC ([5]; M. suipneumoniae PW/C/210, in vitro, 6 days 37° C., read-out: MIC): ≤ 0.01 µg/mL
- MIC (M. suipneumoniae HR(2); M. suipneumoniae HR(2), in vitro, 6 days 37° C., read-out: MIC): 0.025 µg/mL (≈ 0.0521 µM)
- MIC (Staph. aureus Oxford): 0.625 µg/mL (≈ 1.3 µM)
- MIC [6]: 5 µg/mL (≈ 10.4 µM)
- MIC [7]: 20 µg/mL (≈ 41.7 µM)
- MIC (Past. multocida PA2): 0.312 µg/mL (≈ 0.651 µM)
- MIC (Strep. dylgalactiae SPD1): 0.312 µg/mL (≈ 0.651 µM)
- MIC (S. typhimurium S18; [9]): 40 µg/mL (≈ 83.4 µM)
- MIC (Strep. agalactiae SPA1): 0.625 µg/mL (≈ 1.3 µM)
- MIC (S. dublin S7; [10]): 80 µg/mL (≈ 167 µM)
- MIC (Staph. aureus B4): 0.625 µg/mL (≈ 1.3 µM)
- MIC (E. Coli E1; [11]): 40 µg/mL (≈ 83.4 µM)
- MIC (Staph. aureus 152): 0.625 µg/mL (≈ 1.3 µM)
- MIC [8, 12]: > 80 µg/mL

Structure (SMILES): C/C(=C\C(=O)OCc1cccc([N+](=O)[O-])c1)CC1OCC(C/C=C/C(C)C(C)O)C(O)C1O (stereo not drawn) [Example 5, m-nitrobenzyl monate C]
- MIC (Strep. 641848-C): 5 µg/mL (≈ 10.8 µM)
- MIC [1]: 1 µg/mL (≈ 2.16 µM)
- MIC (E. coli ESS): 10 µg/mL (≈ 21.6 µM)
- MIC (M. gallisepticum S6; S6, 144 h): 5 µg/mL (≈ 10.8 µM)
- MIC ([2]; J2206/183B): 0.25 µg/mL (≈ 0.539 µM)
- MIC (M. hyorhinis ATCC 25021): 0.25 µg/mL (≈ 0.539 µM)
- MIC [3]: 0.25 µg/mL (≈ 0.539 µM)
- MIC (M. suipneumoniae Str. 11; STR.11, 144 h): 0.1 µg/mL (≈ 0.216 µM)
- MIC [4]: 0.25 µg/mL (≈ 0.539 µM)
- MIC (M. suipneumoniae LABER): 0.1 µg/mL (≈ 0.216 µM)
- MIC (M. suipneumoniae TAM 6N): 0.25 µg/mL (≈ 0.539 µM)
- MIC (M. suipneumoniae MS 16): 0.1 µg/mL (≈ 0.216 µM)
- MIC (M. bovis RCTC 10131): 0.1 µg/mL (≈ 0.216 µM)
- MIC [5]: 0.1 µg/mL (≈ 0.216 µM)
- MIC (M. suipneumoniae HR(2)): 0.25 µg/mL (≈ 0.539 µM)
- MIC (Staph. aureus Oxford): 2.5 µg/mL (≈ 5.39 µM)
- MIC [6]: 80 µg/mL (≈ 173 µM)
- MIC [7]: > 80 µg/mL
- MIC (Past. multocida PA2): 2.5 µg/mL (≈ 5.39 µM)
- MIC (Strep. dylgalactiae SPD1): 1.25 µg/mL (≈ 2.7 µM)
- MIC (S. typhimurium S18; [9]): > 80 µg/mL
- MIC (Strep. agalactiae SPA1): 2.5 µg/mL (≈ 5.39 µM)
- MIC (S. dublin S7; [10]): > 80 µg/mL
- MIC (Staph. aureus B4): 2.5 µg/mL (≈ 5.39 µM)
- MIC (E. Coli E1; [11]): > 80 µg/mL
- MIC (Staph. aureus 152): 2.5 µg/mL (≈ 5.39 µM)
- MIC [8, 12]: > 80 µg/mL

Structure (SMILES): C/C(=C\C(=O)OCc1ccccc1[N+](=O)[O-])CC1OCC(CC2OC2C(C)C(C)O)C(O)C1O (stereo not drawn) [C, O--nitrobenzyl monate A, reference compound]
- MIC (Strep. 2733-B; 18 h): 2.5 µg/mL (≈ 5.21 µM)
- MIC [1]: 1 µg/mL (≈ 2.09 µM)
- MIC (E. coli ESS): 2.5 µg/mL (≈ 5.21 µM)
- MIC (M. gallisepticum S6; S6, 144 h): 5 µg/mL (≈ 10.4 µM)
- MIC ([2]; J2206/183B): 0.5 µg/mL (≈ 1.04 µM)
- MIC (M. hyorhinis ATCC 25021): 0.25 µg/mL (≈ 0.521 µM)
- MIC [3]: 0.5 µg/mL (≈ 1.04 µM)
- MIC (M. suipneumoniae Str. 11; STR.11, 144 h): 0.25 µg/mL (≈ 0.521 µM)
- MIC [4]: 0.25 µg/mL (≈ 0.521 µM)
- MIC (M. suipneumoniae LABER): 0.25 µg/mL (≈ 0.521 µM)
- MIC (M. suipneumoniae TAM 6N): 0.5 µg/mL (≈ 1.04 µM)
- MIC (M. suipneumoniae MS 16): 0.25 µg/mL (≈ 0.521 µM)
- MIC (M. bovis RCTC 10131): ≤ 0.01 µg/mL
- MIC [5]: 0.25 µg/mL (≈ 0.521 µM)
- MIC (M. suipneumoniae HR(2)): 0.5 µg/mL (≈ 1.04 µM)
- MIC (Staph. aureus Oxford): 0.625 µg/mL (≈ 1.3 µM)
- MIC [6]: 20 µg/mL (≈ 41.7 µM)
- MIC [7]: 80 µg/mL (≈ 167 µM)
- MIC (Past. multocida PA2): 1.25 µg/mL (≈ 2.61 µM)
- MIC (Strep. dylgalactiae SPD1): 0.625 µg/mL (≈ 1.3 µM)
- MIC (S. typhimurium S18; TYPHIMURIUM, 18 h): > 80 µg/mL
- MIC (Strep. agalactiae SPA1): 2.5 µg/mL (≈ 5.21 µM)
- MIC (S. dublin S7; S7, 18 h): > 80 µg/mL
- MIC (Staph. aureus B4): 0.625 µg/mL (≈ 1.3 µM)
- MIC (E. Coli E1; 18 h): > 80 µg/mL
- MIC (Staph. aureus 152): 0.625 µg/mL (≈ 1.3 µM)
- MIC ([8]; CY1, 18 h): > 80 µg/mL
